Measured values: patent US7595403B2, “Benzisothiazol-3-one-carboxylic acid amides as phospholipase inhibitors” (Eli Lilly and Company, priority 2003, dated 2009)

target: T1, Recombinant Hepatic Lipase (Homo sapiens, UniProt P11150); assay: Hepatic Lipase Phospholipase Assay; format: biochemical; settings: ThioPEG substrate, DTNB read at 412 nm, pH 8.3, 37° C., HL 12.5 nM
T1 construct: made in house; host or cells: AV12 cells
T1 sequence (P11150 23-499): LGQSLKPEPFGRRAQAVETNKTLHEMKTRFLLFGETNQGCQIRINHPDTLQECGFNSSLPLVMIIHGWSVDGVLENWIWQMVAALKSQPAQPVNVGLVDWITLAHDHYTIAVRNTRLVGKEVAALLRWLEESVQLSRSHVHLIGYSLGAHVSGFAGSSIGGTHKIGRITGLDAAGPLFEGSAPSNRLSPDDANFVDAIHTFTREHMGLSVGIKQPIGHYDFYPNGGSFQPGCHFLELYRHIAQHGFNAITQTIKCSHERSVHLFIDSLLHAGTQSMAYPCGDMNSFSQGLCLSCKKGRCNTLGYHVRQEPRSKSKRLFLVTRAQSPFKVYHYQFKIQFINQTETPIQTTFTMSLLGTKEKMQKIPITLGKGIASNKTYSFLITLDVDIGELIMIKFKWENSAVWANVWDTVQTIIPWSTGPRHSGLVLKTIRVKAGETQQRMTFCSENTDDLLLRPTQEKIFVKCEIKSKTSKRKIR
Experimental: Hepatic Lipase Phospholipase Assay
Efficacy was determined by testing various compounds of the invention in a hepatic lipase and/or endothelial lipase assay discussed below, and disclosed in U.S. patent application Ser. No. 09/609, 871 filed Jul. 3, 2000 incorporated herein in its entirety for U.S Patent Office purposes.
• Substrate Buffer A: 100 mM Hepes, pH 8.3 at 37° C. • Substrate Buffer B: 100 mM Hepes, pH 8.3 at 37° C. with 6.83 mM Triton X100 • ThioPEG: Molecular wt. of 540 • Recombinant Hepatic Lipase • Thiophospholipid: about 0.42 mM thiophospholipid in chloroform • DTNB Solution: about […] DTNB in DMSO (dimethyl sulfoxide) Hepes Buffer A
For Hepes Buffer A, there is 2.4 g Hepes/100 mL water. Therefore 36 grams of Hepes is dissolved in 1500 mL of water. The mix solution's pH is adjusted to pH83 at 37° C. and brought up to 1500 mL with water. 500 mL of Buffer A is retained for the Protein Buffer.
To the remaining 1000 mL of Hepes Buffer A, 4.49 g of Triton X-100 is added and then the combination mixed on a stir plate. It is optimal that stock Buffer A not be too cold or Triton X-100 will take a long time to go into solution
For 0.42 mM substrate stock, use 0.227 mg of thioPEG/mL of Substrate Buffer B. Approximately 20 mg of sn-1 thiol substituted Phosphatidyl Ethylene Glycol (see Examples for preparation method) is weighed into a vial, such as a scintillation vial. Enough chloroform should be added to make a 2.043 mg/mL solution. Sonicate the solution briefly until well dissolved. Next, pipette 1 mL of chloroform/substrate solution into each scintillation vial. This should give enough substrate for one full 96 well plate. Each vial is dried with nitrogen until solvent removed, swirling each vial simultaneously such that a thin film of substrate will be easily reconstituted in each buffer. Each vial is then frozen.
Daily stock preparation is-performed for 9 mL of substrate (one microtiter plate). On the day of the assay, the substrate vial is removed from the freezer and combined with 9 mL of pre-warmed (37° C.) substrate buffer (the final concentration is 0.227 mg/mL). Place the buffer in a 37° C. water bath. Sonicate for 5 minutes or vortex until solution is clear before use.
The enzyme is stored at −80° C. in 100 or 50 μL portions. A 0.406 mg/mL recombinant hepatic lipase and/or endothelial lipase stock requires a 50-fold dilution. Therefore, to a 50 μl or 100 μl enzyme aliquot, 2450 μl or 4900 μl, respectively, of substrate Buffer A (protein buffer) should be added. The enzyme should then be stored on ice until ready to use. The protein concentration of enzyme is about 0.406 mg/mL.
To make a 20 mg/mL stock solution, 2-3 mg of DTNB is weighed and then mixed with an appropriate amount of 100% DMSO (dimethyl sulfoxide) to make the desired concentration. This mixture is sonicated for five minutes.
The above solution should be diluted 10 fold with substrate Buffer B (concentration now 2 mg/mL). Then to the thioPEG substrate solution, add 60 μl of dilute DTNB per mL of thioPEG substrate solution. Thus for 9 mL of substrate, 540 microliters of dilute DTNB (final concentration in substrate solution=0.11 mg/mL).
The test compound is dissolved in pure DMSO at […]. As shown below in Table 2, assay concentrations are 10, 1, 0.1, 0.33, 0.011, 0.0037, 0.0012 and 0.00041 μM.
Using a spectrometer, DTNB is used as a thiol coloring reagent with an incubator temperature of 37° C. Substrate Buffer B is placed in a 37° C. water bath to pre-warm. The substrate is removed from the freezer and 9 mL of substrate Buffer B, 100 mM Hepes, 6.83 mM Tx-100) is added, sonicated for 5 min. and then kept in a 37° C. water bath. Dilutions of the test compound are next made in preparation for assay.
10 μl of the diluted test compound are transferred via pipette into the wells. Control wells receive 10 μl each of 10% DMSO and enzyme solution, while blank wells receive 10 microliters of 10% DMSO and 10 microliters of saline (no enzyme). […]

| Compound | IC50 [nM] |
| --- | --- |
| CCCCCCNC(=O)n1sc2ccccc2c1=O | 724 ± 16 |
| CC(C)CCCCNC(=O)n1sc2ccccc2c1=O | 622 ± 19 |
| CCCCCCCNC(=O)n1sc2ccccc2c1=O | 757 ± 18 |
| CCCCCCCCNC(=O)n1sc2ccccc2c1=O | 649 ± 17 |
| CCCCCCCCCCCCNC(=O)n1sc2ccccc2c1=O | 933 ± 34 |
| CC(C)NC(=O)n1sc2cc(Cl)ccc2c1=O | 626 ± 20 |
| CCCCCNC(=O)n1sc2cc(Cl)ccc2c1=O | 532 ± 10 |
| CCCCCCNC(=O)n1sc2cc(Cl)ccc2c1=O | 333 ± 8 |
| O=C(NC1CCCCC1)n1sc2cc(Cl)ccc2c1=O | 419 ± 7 |
| CCCCCNC(=O)n1sc2ccccc2c1=O [drawing 9] | 879 ± 24 |
| O=C(NCCCCC1CCCCC1)n1sc2ccccc2c1=O [drawing 22] | 482 ± 21 |

The remaining lines, values ahead:

| IC50 [nM] | Compound |
| --- | --- |
| 183 ± 6 | Cc1ccccc1CNC(=O)n1sc2ccccc2c1=O |
| 409 ± 14 | Cc1cccc(CNC(=O)n2sc3ccccc3c2=O)c1 |
| 671 ± 18 | Cc1ccc(CNC(=O)n2sc3ccccc3c2=O)cc1 |
| 893 ± 48 | O=C(NCc1ccccc1)n1sc2cc(Cl)ccc2c1=O |
| 237 ± 4 | CCc1cccc(C)c1CNC(=O)n1sc2ccccc2c1=O [drawing 18] |
| 238 ± 13 | Cc1cccc(C(C)C)c1CNC(=O)n1sc2ccccc2c1=O [drawing 19] |
| 430 ± 19 | O=C(NCCCc1ccccc1)n1sc2ccccc2c1=O [drawing 20] |
| 458 ± 16 | O=C(NCCCCc1ccccc1)n1sc2ccccc2c1=O [drawing 21] |

system: not given; assay: not given; settings: not given

| Compound | melting point [°C] |
| --- | --- |
| CCCCCNC(=O)n1sc2ccccc2c1=O [Example 4, 3-Oxo-3H-benzo[d]isothiazole-2-carboxylic acid pentylamide] | 42 to 44 |
| O=C(NCCCCC1CCCCC1)n1sc2ccccc2c1=O [Example 19, 3-Oxo-3H-benzo[d]isothiazole-2-carboxylic acid (4-cyclohexyl-butyl)-amide] | 76 to 78 |

The remaining lines, values ahead:

| melting point [°C] | Compound |
| --- | --- |
| 123 to 124 | CCNC(=O)n1sc2ccccc2c1=O [Example 1, 3-Oxo-3H-benzo[d]isothiazole-2-carboxylic acid ethylamide] |
| 90 to 91 | CCCNC(=O)n1sc2ccccc2c1=O [Example 2, 3-Oxo-3H-benzo[d]isothiazole-2-carboxylic acid propylamide] |
| 116 to 119 | C=CCNC(=O)n1sc2ccccc2c1=O [Example 3, 3-Oxo-3H-benzo[d]isothiazole-2-carboxylic acid allylamide] |
| 102 to 104 | CCc1cccc(C)c1CNC(=O)n1sc2ccccc2c1=O [Example 13, 3-Oxo-3H-benzo[d]isothiazole-2-carboxylic acid 2-ethyl-6-methyl-benzylamide] |
| 102 to 103 | Cc1cccc(C(C)C)c1CNC(=O)n1sc2ccccc2c1=O [Example 14, 3-Oxo-3H-benzo[d]isothiazole-2-carboxylic acid 2-isopropyl-6-methyl-benzylamide] |
| 153 to 155 | O=C(NCCc1ccccc1)n1sc2ccccc2c1=O [Example 15, 3-Oxo-3H-benzo[d]isothiazole-2-carboxylic acid phenethylamide] |
| 109 to 111 | O=C(NCCCc1ccccc1)n1sc2ccccc2c1=O [Example 17, 3-Oxo-3H-benzo[d]isothiazole-2-carboxylic acid (3-phenyl-propyl)-amide] |
| 119 to 120 | O=C(NCCCCc1ccccc1)n1sc2ccccc2c1=O [Example 18, 3-Oxo-3H-benzo[d]isothiazole-2-carboxylic acid (4-phenyl-butyl)-amide] |
